Assays:
TNF-α = assay: In vitro measurement of TNF-α in human PBMC (LPS stimulated); type: cell-based; details: for inhibition at 1 µM: NA = No activity, read-out: TNF-α Inhibition (%) at Conc. (1 μM); for inhibition at 10 µM: read-out: TNF-α Inhibition (%) at Conc. (10 μM)
How it was run: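 Healthy-volunteer PBMC (0.5 million/well) in RPMI were pre-incubated with compound 15 min at 37 °C. They were then stimulated with E. coli B4 LPS 1 μg/ml for 18 h at 37 °C, 5% CO2. TNF-α in culture medium was measured by ELISA.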

Male wistar rats = assay: Carrageenan induced paw edema test in rat; type: in vivo; details: oral, 3 hours after carrageenan
Experimental: Carrageenan Induced Paw Edema Test in Rat
The carrageenan paw edema test was performed as described by Winter et al (Proc. Soc. Exp. Biol. Med, 111, 544, 1962). Male wistar rats were selected with body weights equivalent within each group. The rats were fasted for 18 hours with free access to water. The rats were dosed orally with the test compound suspended in the vehicle containing 0.25% carboxymethylcellulose and 0.5% Tween 80. The control rats were administered with vehicle alone. After an hour, the rats were injected with 0.1 ml of 1% Carrageenan solution in 0.9% saline into the sub-plantar surface of the right hind paw. Paw volume was measured using digital plethysmograph before and after 3 hours of carrageenan injection. The average of foot swelling in drug treated animals was compared with that of the control animals. Anti-inflammatory activity was expressed as the percentage inhibition of edema compared with control group [Arzneim-Forsch/Drug Res., 43 (I), 1, 44-50, 1993; Representative results of edema inhibition are shown in the Table VI.

Animals (male wistar) = assay: Ulcerogenic potential; type: in vivo; details: oral, 4 hours after administration
Experimental: In order to evaluate the compound's role on the ulcer formation, the animals were sacrificed and the stomach was taken out and flushed with 1% formalin. Animals (male wistar. 200 g) were fasted for 18 hours with free access to water and the test compounds were suspended in 0.5% Tween 80 and 0.25% CMC (carboxymethylcellulose) solution to make a uniform suspension. After 4 hours of oral administration of test compounds, all the animals were sacrificed by cervical dislocation. The stomach was dissected carefully and filled up with a sterile saline solution and embedded in 6% formalin solution. […] The test compound treated groups were compared with the vehicle treated groups. […]

IL-6 = assay: In vitro measurement of IL-6 in human PBMC (LPS stimulated); type: cell-based; details: 10 μM, read-out: IL-6 Inhibition (%) Conc. (10 μM)
Experimental: In Vitro Measurement of Interleukin-6(IL-6)
This assay determins the effect of test compounds on the production of IL-6 in human PBMC (Physiol. Res. 52: 593-598, 2003). Compounds were tested for their ability to inhibit the activity of IL-6 in human PBMC. PBMC were isolated from blood using BD Vacutainer CPT™ Cell preparation tube (BD Bio Science) and suspended in RPMI medium. The test compounds were pre-incubated with PBMC (0.5 million/incubation well) for 15 minutes at 37° C. and then stimulated with Lipopolysaccharide (Escherichia coli: B4; 1 μg/ml) for 18 hours at 37° C. in 5% CO2. The levels of IL-6 in cell culture medium were estimated using enzyme-linked immunosorbent assay performed in a 96 well format as per the procedure of the manufacturer (Cayman Chemical, Ann Arbor, USA).

IL-12 = IL-12 inhibition; type: cell-based
DU-145 = assay: Anti-cancer screen (MTT), DU-145; type: cell-based; details: Homo sapiens, DU-145, 48 hours
HCT-116 = assay: Anti-cancer screen (MTT), HCT-116; type: cell-based; details: Homo sapiens, HCT-116, 48 hours
Experimental: (§1) Experimental drugs are screened for anti-cancer activity in three cell lines for their GI50, TG1 and LC50 values (using 5 concentrations for each compound). The cell lines are maintained in DMEM containing 10% fetal bovine serum. 96 well microtiter plates are inoculated with cells in […] for 24 hours at 37° C., 5% CO2, 95% air and 100% relative humidity. 5000 HCT116 cells/well, 5000 NCIH460 cells/well, 10000 U251 cells/well and 5000 MDAMB231 cells/well are plated. A separate plate with these cell lines is also inoculated to determine cell viability before the addition of the compounds (T0).
(§2) Addition of Experimental Drugs
(§3) Following 24-hour incubation, experimental drugs are added to the 96 well plates. Each plate contains one of the above cell lines and the following in triplicate: 5 different concentrations (0.01, 0.1, 1, 10 and 100 μM) of 4 different compounds, appropriate dilutions of a cytotoxic standard and control (untreated) wells. Compounds are dissolved in dimethylsulfoxide (DMSO) to make 20 mM stock solutions, on the day of drug addition and frozen at −20° C. Serial dilutions of these 20 mM stock solutions are made in complete growth medium such that 100 μL of these drug solutions in medium, of final concentrations equaling 0.01, 0.1, 1, 10 and 100 μM can be added to the cells in triplicate. Standard drugs whose anti-cancer activity has been well documented and which are regularly used are doxorubicin and SAHA.
(§4) Cells are incubated with compounds for 48 hours followed by the addition of 10 μL 3-(4,5-Dimethyl-2-thiazolyl)-2,5-diphenyl-2H-tetrazolium (MTT) solution per well and a subsequent incubation at 37° C., 5% CO2, 95% air and 100% relative humidity, protected from light. After 4 hours, well contents are aspirated carefully followed by addition of 150 μL DMSO per well. Plates are agitated to ensure solution of the formazan crystals in DMSO and absorbance read at 570 nm.
(§5) Calculation of GI50, TGI and LC50
(§6) Percent growth is calculated for each compound's concentration relative to the control and zero measurement wells (T0; viability right before compound addition).
(§7) If a test well's O.D. value is greater than the T0 measurement for that cell line % Growth=(test−zero)/(control−zero)×100
(§8) If a test well's O.D. value is lower than the T0 measurement for that cell line, then % Growth=(test−zero)/zero×100 Plotting % growth versus experimental drug concentration, GI50 is the concentration required to decrease % growth by 50%; TGI is the concentration required to decrease % growth by 100% and LC50 is the concentration required to decrease % growth by 150%.

NCI-H460 = assay: Anti-cancer screen (MTT), NCI-H460; type: cell-based; details: Homo sapiens, NCI-H460, 48 hours
Experimental: as §1, §2, §3, §4, §5, §6, §7, §8

PDE4 = PDE4 activity; type: biochemical; details: source Human U937 cells
Experimental: PDE4 Activity PDE4 inhibition was measured by following a literature assay procedure (Cortizo J et al., Br J Pharmacol., 1993, 108: 562-568. The assay method involves the following conditions. • Source: Human U937 cells • Substrate: 1.01 μM [^3H] camp+camp • Vehicle: 1% DMSO • Pre-Incubation Time/Temperature: 15 minutes at 25° C. • Incubation Time/Temperature. 20 minutes at 25° C. • Incubation buffer: 50 mM Tris-HCl, pH 7.5, 5 mM MgCl2 • Quantitation method: Quantitation of [^3H] Adenosine • Significance criteria: >50% of max stimulation or inhibition The results are tabulated as shown in the table XIII.

[1] = molecular target: purified recombinant COX-1 (Homo sapiens, UniProt P23219); assay: COX-1 enzyme based assay; type: biochemical; details: NA = No activity, read-out: % Inhibition in rEnzyme Assay COX-1
How it was run: (§9)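 Purified recombinant enzyme converted arachidonic acid to PGH2 at 37° C with or without test compound; stopped with 1M HCl after 2 minutes. PGH2 reduced by SnCl2 to PGF2α, quantified by enzyme immunoassay; inhibition inferred from reduced prostanoid.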

[2] = molecular target: T1, purified recombinant COX-2 (Homo sapiens, UniProt P35354); assay: COX-2 enzyme based assay; type: biochemical; details: NA = No activity, read-out: % Inhibition in rEnzyme Assay COX-2
T1 sequence (P35354 18-604): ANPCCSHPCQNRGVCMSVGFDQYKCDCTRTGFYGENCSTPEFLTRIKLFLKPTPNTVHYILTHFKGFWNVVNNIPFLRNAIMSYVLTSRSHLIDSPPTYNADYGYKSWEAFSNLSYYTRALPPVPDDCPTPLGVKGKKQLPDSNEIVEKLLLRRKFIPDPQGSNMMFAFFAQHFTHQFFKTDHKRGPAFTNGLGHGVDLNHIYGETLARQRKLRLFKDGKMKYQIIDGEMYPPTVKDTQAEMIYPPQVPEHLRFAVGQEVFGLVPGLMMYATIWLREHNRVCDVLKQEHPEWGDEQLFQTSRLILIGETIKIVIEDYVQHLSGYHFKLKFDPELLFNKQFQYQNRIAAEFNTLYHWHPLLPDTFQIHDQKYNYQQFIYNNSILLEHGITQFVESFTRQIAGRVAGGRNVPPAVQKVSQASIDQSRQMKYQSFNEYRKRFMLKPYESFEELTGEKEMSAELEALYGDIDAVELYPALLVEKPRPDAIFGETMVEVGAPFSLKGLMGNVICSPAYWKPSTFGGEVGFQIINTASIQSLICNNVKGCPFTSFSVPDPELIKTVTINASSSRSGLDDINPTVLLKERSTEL
How it was run: as §9

Sequence of purified recombinant COX-1 (P23219 24-599): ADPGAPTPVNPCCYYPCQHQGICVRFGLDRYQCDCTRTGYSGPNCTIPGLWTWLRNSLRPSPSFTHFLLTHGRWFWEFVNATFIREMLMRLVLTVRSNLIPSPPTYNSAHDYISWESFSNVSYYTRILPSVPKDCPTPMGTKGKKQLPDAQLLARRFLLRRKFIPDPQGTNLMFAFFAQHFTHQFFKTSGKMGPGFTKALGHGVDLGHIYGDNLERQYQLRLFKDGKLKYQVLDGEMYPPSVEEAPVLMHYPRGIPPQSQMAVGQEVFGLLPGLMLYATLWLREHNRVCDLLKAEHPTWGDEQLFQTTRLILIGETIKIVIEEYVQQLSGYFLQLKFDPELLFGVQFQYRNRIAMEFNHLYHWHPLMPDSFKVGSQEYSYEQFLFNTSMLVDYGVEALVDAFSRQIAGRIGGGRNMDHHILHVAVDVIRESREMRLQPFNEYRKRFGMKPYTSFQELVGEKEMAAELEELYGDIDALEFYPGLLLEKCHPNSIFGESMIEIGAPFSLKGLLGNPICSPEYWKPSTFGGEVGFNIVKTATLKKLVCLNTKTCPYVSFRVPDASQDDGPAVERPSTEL

CNc1nc(C(F)(F)F)nc(-c2ccc(S(C)(=O)=O)cc2)c1-c1ccc(S(=O)(=O)NC)cc1 [Example 5, 4-{4-(Methylamino)-6-[4-(methylsulfonyl)phenyl]-2-(trifluoromethyl)pyrimidin-5-yl}-N-methylbenzenesulfonamide]
inhibition at 1 µM (TNF-α): 35.9%
inhibition at 10 µM (TNF-α): 56.3%
Inhibition of edema (%) at 5 mg/kg (Male wistar rats): 14.5%
Ulcer incidence at 5 mg/kg (Animals (male wistar)): Nil

CS(=O)(=O)c1ccc(-c2nc(C(F)(F)F)nc(N3CCN(S(=O)(=O)c4ccc(F)cc4Cl)CC3)c2-c2ccccc2)cc1 [Example 157, 4-{4-[(2-Chloro-4-fluorophenyl)sulfonyl]piperazin-1-yl}-6-(4-methylsulfonylphenyl)-5-phenyl-2-(trifluoromethyl)pyrimidine]
inhibition at 1 µM (TNF-α): 33.5%
inhibition at 10 µM (TNF-α): 91.3%
inhibition at 10 µM (IL-6): 65.7%
inhibition at 1 µM (IL-12; read-out: IL-12 Inhibition (%) Conc. (1 μM)): 69%
inhibition at 10 µM (IL-12; read-out: IL-12 Inhibition (%) Conc. (10 μM)): 98.3%

CS(=O)(=O)c1ccc(-c2nc(C(F)(F)F)nc(N3CCN(C(=O)c4ccc([N+](=O)[O-])o4)CC3)c2-c2ccccc2)cc1 [Example 38, 6-[4-(Methylsulfonyl)phenyl]-4-[4-(5-nitro-2-furoyl)piperazin-1-yl]-5-phenyl-2-(trifluoromethyl)pyrimidine]
GI50 (DU-145): 4 µM
GI50 (HCT-116): 6 µM
GI50 (NCI-H460): 3.75 µM

N#CCCN1CCN(c2nc(C(F)(F)F)nc(-c3ccc(F)cc3)c2-c2cccc(S(N)(=O)=O)c2)CC1 [Example 99, 3-{4-[4-(2-Cyanoethyl)piperazin-1-yl]-6-(4-fluorophenyl)-2-(trifluoromethyl)pyrimidin-5-yl}benzenesulfonamide]
PDE4 inhibition at 10 μM (%) (PDE4): 92%

NS(=O)(=O)c1cccc(-c2c(-c3ccc(F)cc3)nc(C(F)(F)F)nc2N2CCN(C(=O)C(F)(F)F)CC2)c1 [Example 108, 3-{6-(4-Fluorophenyl)-4-[4-(trifluoroacetyl)piperazin-1-yl]-2-(trifluoromethyl)pyrimidin-5-yl}benzenesulfonamide]
PDE4 inhibition at 10 μM (%) (PDE4): 90%

NS(=O)(=O)c1cccc(-c2c(-c3ccccc3)nc(C(F)(F)F)nc2N2CCN(C(=O)C(F)(F)F)CC2)c1 [Example 172, 3-{6-Phenyl-4-[4-(trifluoroacetyl)piperazin-1-yl]-2-(trifluoromethyl)pyrimidin-5-yl}benzenesulfonamide]
PDE4 inhibition at 10 μM (%) (PDE4): 87%

CNS(=O)(=O)c1ccc(-c2c(N)nc(C(F)(F)F)nc2-c2ccc(S(C)(=O)=O)cc2)cc1 [Example 2, 4-{4-Amino-6-[4-(methylsulfonyl)phenyl]-2-(trifluoromethyl)pyrimidin-5-yl}-N-methylbenzenesulfonamide]
inhibition at 1 µM ([1]; 1 μM): 33.8%
inhibition at 10 µM ([1]; 10 μM): 50.4%
inhibition at 1 µM ([2]; 1 μM): 17.3%
inhibition at 10 µM ([2]; 10 μM): 48.9%
GI50 (DU-145): 3.5 µM
GI50 (HCT-116): 2.5 µM
GI50 (NCI-H460): 8.5 µM
